Values after ≈ are worked out from the molar mass of the structure shown.
Columns and labels:
[1] = system: H. pylori ATCC 43504; assay: Minimum Inhibitory Concentration (MIC) blood agar plate growth inhibition; format: cell-based, Helicobacter pylori
Method: Subsequent dilutions were made in ethanol immediately prior to use. […] Subsequent dilutions were made in BHI medium (Brain heart infusion broth, Difco #0037-07-0) immediately prior to use.
(§1) Blood agar base (BAB) was prepared containing 1.5% agar and autoclaved. 20 ml samples of autoclaved BAB were poured into 50 mL tubes and placed in a 56° C. water bath.
The mixed media preparation was poured into a petri dished and allowed to solidify.
(§2) Prior to inoculation of petri plates, bacteria or cultures were examined for morphology under a phase microscope to confirm motility and physical characteristics, e.g., spiral shaped. The organisms were washed off the plate into PBS (Phosphate buffered saline) (80.0 g NaCl, 2.0 g KCl, 2.4 g KH2PO4 11.5 g Na2HPO4 or 24.4 g Na2HPO4/2H2O per 1 liter deionized water, pH 7.2, sterilized by autoclaving) and diluted into BHI at a concentration of 10^8/ml (O.D. of 0.3 units diluted 1:30). Ten microliters of solution containing 10^6 organisms were spread onto a petri plate and grown under microaerophilic conditions for 3 days unless specified. Control organisms were grown under microaerophilic conditions.
(§3) Inhibition of growth was determined by the amount of colonies present within the petri plate. The following factors were used for growth inhibition: ±=0-20 colonies, +=20-50 colonies, ++=50-200 colonies and +++=200+ colonies.

[2] = system: H. pylori (urease negative) (Wild strain of ATCC 43504); assay: as above; format: cell-based, Helicobacter pylori; details: Table III
Method: (§4) Monensin (Sigma Cat. No. M-5273) was dissolved in 100% absolute ethanol (AAPER Alcohol and Chemical Co.) at a concentration of 20 mg/ml. Subsequent dilutions were made in ethanol immediately prior to use. Nigericin (Sigma Cat. No. N-7143) was dissolved in DMSO at 2 mg/ml. Subsequent dilutions were made in BHI medium (Brain heart infusion broth, Difco #0037-07-0) immediately prior to use.
as §1
(§5) 100 μl of a drug (final concentration equivalent to 1:200 of original concentration) and 1.2 ml of sheep blood (Colorado Senun Company # CS-1112) (blood diluted in a 1:1 buffer providing a 3% concentration of blood per 20 ml medium sample) were added to 20 ml sample of media and mixed. The mixed media preparation was poured into a petri dished and allowed to solidify.
as §2, §3

[3] = system: Staph ATCC 14775; assay: Blood agar plate growth inhibition, control organism; format: cell-based
Method: as §4, §1, §5
as §2, with “Control organisms were grown under microaerophilic conditions.” left out
as §3

[4] = system: H. pylori (urease positive) ATCC Number 51652; assay: Minimum Inhibitory Concentration (MIC) blood agar plate growth inhibition; format: cell-based, Helicobacter pylori; details: Table XVII, Blood agar base + 3% sheep blood
Method: as §4, §1, §5, §2, §3

[5] = final drug concentration 0.1 ng/ml
[6] = final drug concentration 10 ng/ml
[7] = final drug concentration 100 ng/ml
[8] = final drug concentration 1 μg/ml
[9] = final drug concentration 10 μg/ml

CO[C@@H]1C[C@@H](C[C@H]2CC[C@H](C)[C@H]([C@@H](C)C(=O)O)O2)O[C@]2(O[C@](C)([C@H]3CC[C@@](C)([C@@H]4O[C@@H]([C@H]5O[C@@](O)(CO)[C@H](C)C[C@@H]5C)C[C@@H]4C)O3)C[C@H]2C)[C@@H]1C [Nigericin, nigericin]
growth (amount of colonies present within the petri plate) ([1]; Table I, final drug concentration 0.1 ng/ml): (+++) (+++=200+ colonies) | growth (amount of colonies present within the petri plate) ([1]; Table I, final drug concentration 1 ng/ml): (+++) (+++=200+ colonies) | growth (amount of colonies present within the petri plate) ([1]; Table I, final drug concentration 10 ng/ml): (+++) (+++=200+ colonies) | growth (amount of colonies present within the petri plate) ([1]; Table I, final drug concentration 100 ng/ml): (++) (++=50-200 colonies) | growth (amount of colonies present within the petri plate) ([1]; Table I, final drug concentration 1 μg/ml): No growth | growth (amount of colonies present within the petri plate) ([1]; Table I, final drug concentration 10 μg/ml): No growth | growth (amount of colonies present within the petri plate) ([1]; Table II, urease positive, final drug concentration 1 ng/ml): (+++) (+++=200+ colonies) | growth (amount of colonies present within the petri plate) ([1]; Table II, urease positive, final drug concentration 10 ng/ml): (+++) (+++=200+ colonies) | growth (amount of colonies present within the petri plate) ([1]; Table II, urease positive, final drug concentration 1 μg/ml): No growth | growth (amount of colonies present within the petri plate) ([1]; Table II, urease positive, final drug concentration 10 μg/ml): No growth | growth (amount of colonies present within the petri plate) ([1]; Table II, urease positive, final drug concentration 0.1 nglml): (+++) (+++=200+ colonies) | growth (amount of colonies present within the petri plate) ([1]; Table IV, urease positive, final drug concentration 0.1 ng/ml): (+++) (+++=200+ colonies) | growth (amount of colonies present within the petri plate) ([1]; Table IV, urease positive, final drug concentration 1 ng/ml): (+++) (+++=200+ colonies) | growth (amount of colonies present within the petri plate) ([1]; Table IV, urease positive, final drug concentration 10 ng/ml): (+++) (+++=200+ colonies) | growth (amount of colonies present within the petri plate) ([1]; Table IV, urease positive, final drug concentration 100 ng/ml): (+++) (+++=200+ colonies) | growth (amount of colonies present within the petri plate) ([1]; Table IV, urease positive, final drug concentration 1 μg/ml): No growth | growth (amount of colonies present within the petri plate) ([1]; Table IV, urease positive, final drug concentration 10 μg/ml): No growth | growth (amount of colonies present within the petri plate) ([1]; Table V, in the presence of 10 mM urea, final drug concentration 0.1 ng/ml, Nigericin assay done in duplicate): (+++)^1 (+++=200+ colonies) | growth (amount of colonies present within the petri plate) ([1]; Table V, in the presence of 10 mM urea, final drug concentration 1 ng/ml, Nigericin assay done in duplicate): (+++)^1 (+++=200+ colonies) | growth (amount of colonies present within the petri plate) ([1]; Table V, in the presence of 10 mM urea, final drug concentration 10 ng/ml, Nigericin assay done in duplicate): (++)^1 (++=50-200 colonies) | growth (amount of colonies present within the petri plate) ([1]; Table V, in the presence of 10 mM urea, final drug concentration 100 ng/ml, Nigericin assay done in duplicate): (+++)^1 (+++=200+ colonies) | growth (amount of colonies present within the petri plate) ([1]; Table V, in the presence of 10 mM urea, final drug concentration 1 μg/ml, Nigericin assay done in duplicate): (±)^1 (±=0-20 colonies) | growth (amount of colonies present within the petri plate) ([1]; Table V, in the presence of 10 mM urea, final drug concentration 10 μg/ml, Nigericin assay done in duplicate): No growth^1 | growth (amount of colonies present within the petri plate) ([1]; Table VI, in the presence of 2.5 mM urea, final drug concentration 1 ng/ml): (+++) (+++=200+ colonies) | growth (amount of colonies present within the petri plate) ([1]; Table VI, in the presence of 2.5 mM urea, final drug concentration 10 ng/ml): (+++) (+++=200+ colonies) | growth (amount of colonies present within the petri plate) ([1]; Table VI, in the presence of 2.5 mM urea, final drug concentration 1 μg/ml): (±) (±=0-20 colonies) | growth (amount of colonies present within the petri plate) [2, 5]: (+++) (+++=200+ colonies) | growth (amount of colonies present within the petri plate) [2, 6]: (+++) (+++=200+ colonies) | growth (amount of colonies present within the petri plate) [2, 7]: (+++) (+++=200+ colonies) | growth (amount of colonies present within the petri plate) [2, 8]: No growth | growth (amount of colonies present within the petri plate) [2, 9]: No growth | growth (amount of colonies present within the petri plate) ([3]; Table XIV, Non-microaerophilic conditions, final drug concentration 0.1 ng/ml): (+++) (+++=200+ colonies) | growth (amount of colonies present within the petri plate) ([3]; Table XIV, Non-microaerophilic conditions, final drug concentration 1 ng/ml): (+++) (+++=200+ colonies) | growth (amount of colonies present within the petri plate) ([3]; Table XIV, Non-microaerophilic conditions, final drug concentration 10 ng/ml): (+++) (+++=200+ colonies) | growth (amount of colonies present within the petri plate) ([3]; Table XIV, Non-microaerophilic conditions, final drug concentration 100 ng/ml): (+++***) (+++=200+ colonies) | growth (amount of colonies present within the petri plate) ([3]; Table XIV, Non-microaerophilic conditions, final drug concentration 1 μg/ml): No growth | growth (amount of colonies present within the petri plate) ([3]; Table XIV, Non-microaerophilic conditions, final drug concentration 10 μg/ml): No growth

CC[C@@H](C(=O)[C@@H](C)[C@@H](O)[C@H](C)[C@@H]1O[C@@H]([C@@H](CC)C(=O)O)CC[C@@H]1C)[C@H]1O[C@]2(C=C[C@@H](O)[C@]3(CC[C@@](C)([C@H]4CC[C@](O)(CC)[C@H](C)O4)O3)O2)[C@H](C)C[C@@H]1C [Salinomycin, salinomycin]
MIC ([1]; Helicobacter pylori, ATCC43504): 6.25 µg/mL (≈ 8.32 µM) | growth (amount of colonies present within the petri plate) ([1]; Table VII, urease positive, final drug concentration 0.098 μg/ml): (+++) (+++=200+ colonies) | growth (amount of colonies present within the petri plate) ([1]; Table VII, urease positive, final drug concentration 0.195 μg/ml): (+++) (+++=200+ colonies) | growth (amount of colonies present within the petri plate) ([1]; Table VII, urease positive, final drug concentration 0.39 μg/ml): (+++) (+++=200+ colonies) | growth (amount of colonies present within the petri plate) ([1]; Table VII, urease positive, final drug concentration 0.78 μg/ml): (+++) (+++=200+ colonies) | growth (amount of colonies present within the petri plate) ([1]; Table VII, urease positive, final drug concentration 1.56 μg/ml): (+++) (+++=200+ colonies) | growth (amount of colonies present within the petri plate) [4, 5]: (+++) (+++=200+ colonies) | growth (amount of colonies present within the petri plate) ([4]; final drug concentration 1 ng/ml): (+++) (+++=200+ colonies) | growth (amount of colonies present within the petri plate) [4, 6]: (+++) (+++=200+ colonies) | growth (amount of colonies present within the petri plate) [4, 7]: (+++) (+++=200+ colonies) | growth (amount of colonies present within the petri plate) [4, 8]: (+++) (+++=200+ colonies) | growth (amount of colonies present within the petri plate) [4, 9]: No growth | growth (amount of colonies present within the petri plate) ([3]; Table XV, Non microaerophilic conditions, final drug concentration 10 ng/ml): (+++) (+++=200+ colonies) | growth (amount of colonies present within the petri plate) ([3]; Table XV, Non microaerophilic conditions, final drug concentration 100 ng/ml): (+++) (+++=200+ colonies) | growth (amount of colonies present within the petri plate) ([3]; Table XV, Non microaerophilic conditions, final drug concentration 1 μg/ml): (+++)^1 (+++=200+ colonies) | growth (amount of colonies present within the petri plate) ([3]; Table XV, Non microaerophilic conditions, final drug concentration 10 μg/ml): No growth

Reference: patent US20010044463A1, “Methods for controlling gram negative bacteria in mammals” (priority 1997, published 2001)
